Laboratory results from patent US10301317B2, “Inhibitors of ERK and methods of use” (Kura Oncology, Inc., priority 2013, dated 2019).

Assays:
[1] = system: phospho-p90 RSK (RSK1 Thr359/Ser363) in A375 (Braf V600E) cells; assay: Phospho-p90 RSK ELISA using A375 (Braf V600E) cells; type: cell-based; details: Homo sapiens, A-375, 2 hours compound treatment, read-out: Cellular Phospho-p90RSK IC50
A375 cells = assay: Tumor cell line proliferation assay (CellTiter Glo), A375; type: cell-based; details: Homo sapiens, A-375, 96 h, read-out: A375 (V599E) Cell Proliferation IC50
H358 (Kras, G12C) cells = assay: Tumor cell line proliferation assay (CellTiter Glo), H358; type: cell-based; details: Homo sapiens, NCI-H358, 96 hours
WM-266-4 cells = assay: Tumor cell line proliferation assay (CellTiter Glo), WM-266-4; type: cell-based; details: Homo sapiens, 96 hours, read-out: WM-266-4 (V599D) Cell Proliferation IC50
ERK2 enzyme = ERK2 enzyme (Homo sapiens (Human), UniProt P28482); assay: Z'-LYTE kinase assay, inhibition of ERK activity; type: biochemical; details: 100 μM ATP
Description: The inhibition of ERK activity by the compounds disclosed herein was determined using the Z′-LYTE kinase assay kit (Life Technologies) with a Ser/Thr 3 peptide substrate (Life Technologies) according to manufacturers' instructions. […] The IC50 values for the compounds were determined with 3-fold serial dilutions in duplicate. […] The final DMSO concentration in the assay was 1%. Final reaction volume was 20 μL/well in 384-well plates. Kinase reactions were conducted or 1 hour followed by the assay development reaction (1 hour) in a 20 ul/well in a 384 well plate format.

[2] = In vitro Erk2, Z'-LYTE kinase assay

Sequence of ERK2 enzyme (P28482 whole entry): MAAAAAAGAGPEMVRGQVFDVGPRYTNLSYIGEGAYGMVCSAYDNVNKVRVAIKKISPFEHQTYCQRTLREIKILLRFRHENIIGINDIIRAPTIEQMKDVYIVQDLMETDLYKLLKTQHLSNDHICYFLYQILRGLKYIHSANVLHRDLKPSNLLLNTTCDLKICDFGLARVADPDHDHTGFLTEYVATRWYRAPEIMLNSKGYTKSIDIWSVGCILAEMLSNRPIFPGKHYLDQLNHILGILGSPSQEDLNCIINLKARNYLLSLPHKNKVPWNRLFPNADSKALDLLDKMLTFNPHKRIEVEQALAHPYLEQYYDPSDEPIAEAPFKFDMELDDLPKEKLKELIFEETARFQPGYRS

SMILES	IC50 [1] [nM]	IC50 (A375 cells) [nM]	IC50 (H358 (Kras, G12C) cells) [nM]	IC50 (WM-266-4 cells) [nM]	IC50 (ERK2 enzyme; [2]) [nM]	IC50 (ERK2 enzyme; In vitro, ERK2 enzyme) [nM]
O=C1Nc2cc3[nH]nc(-c4ccncc4)c3cc2CN1Cc1ccccc1 [Example 1, 6-benzyl-3-(pyridin-4-yl)-1,5,6,8-tetrahydro-7H-pyrazolo[4,3-g]quinazolin-7-one]	≤ 250	≤ 250	≤ 250	≤ 250		
O=C1Nc2cc3[nH]nc(-c4ccncc4)c3cc2CN1Cc1cccc(Cl)c1 [Example 3]	≤ 250	≤ 250		≤ 250		
COc1ccc(-c2n[nH]c3cc4[nH]c(=O)c(C5CCCN(Cc6ccccc6)C5)cc4cc23)cn1 (centres unmarked) [Example 367]	250 to 1000				< 50	
Cc1cc(-c2n[nH]c3cc4c(cc23)CN(Cc2ccc(Cl)cc2)C(=O)N4)ccn1 [Example 14]	≤ 250	250 to 1000		250 to 1000		
Cc1cc(-c2n[nH]c3cc4c(cc23)CN(CCc2ccc(F)cc2)C(=O)N4)ccn1 [Example 18]	≤ 250	250 to 1000		250 to 1000		
Cc1cc(-c2n[nH]c3cc4c(cc23)CN(C2(c3ccc(F)cc3)CC2)C(=O)N4)ccn1 [Example 17]	250 to 1000	> 1000		> 1000		
Cc1cc(-c2n[nH]c3cc4[nH]c(=O)c(C(C)c5ccccc5)cc4cc23)ccn1 (centres unmarked) [Example 22]	≤ 250	≤ 250		≤ 250		
Cc1cc(-c2n[nH]c3cc4[nH]c(=O)c(Cc5ccc(F)cc5)cc4cc23)ccn1 [Example 21]	250 to 1000	250 to 1000		250 to 1000		
Cc1cc(-c2n[nH]c3cc4c(cc23)CN(Cc2cccc(Cl)c2)C(=O)N4)ccn1 [Example 4]	≤ 250	≤ 250		≤ 250		
Cc1cc(-c2n[nH]c3cc4c(cc23)CN(Cc2ccc(F)c(F)c2)C(=O)N4)ccn1 [Example 13]	≤ 250	250 to 1000		250 to 1000		
Cc1cc(-c2n[nH]c3cc4c(cc23)CN(Cc2cc(F)cc(F)c2)C(=O)N4)ccn1 [Example 7]	≤ 250	250 to 1000		≤ 250		
Cc1cc(-c2n[nH]c3cc4c(cc23)CN([C@H](C)c2ccccc2)C(=O)N4)ccn1 [Example 2, (R)-3-(2-methylpyridin-4-yl)-6-(1-phenylethyl)-5,6-dihydro-1H-pyrazolo[4,3-g]quinazolin-7(8H)-one]	≤ 250	250 to 1000		250 to 1000		
O=C1Nc2cc3[nH]nc(CC4CCOCC4)c3cc2CN1[C@@H]1CN(CC(F)(F)F)C[C@H]1c1ccccc1 [Example 361]	≤ 250				50 to 250	
Cc1cc(-c2n[nH]c3cc4c(cc23)CN(Cc2ccc(F)c(Cl)c2)C(=O)N4)ccn1 [Example 8]	≤ 250	250 to 1000		≤ 250		
Cc1cc(-c2n[nH]c3cc4c(cc23)CN([C@H](C)c2ccc(F)cc2)C(=O)N4)ccn1 [Example 5]	250 to 1000	> 1000		250 to 1000		
Cc1cc(-c2n[nH]c3cc4c(cc23)CN([C@H](C)c2ccc(Cl)cc2)C(=O)N4)ccn1 [Example 16]	≤ 250	250 to 1000		250 to 1000		50 to 250
Cc1cc(-c2n[nH]c3cc4[nH]c(=O)n(Cc5ccccc5)c4cc23)ccn1 [Example 19]	250 to 1000	> 1000		> 1000		
Cc1cc(-c2n[nH]c3cc4c(cc23)CN([C@H](C)c2ccc(C#N)cc2)C(=O)N4)ccn1 [Example 23]	≤ 250	250 to 1000		> 1000		
Cc1cc(-c2n[nH]c3cc4c(cc23)CN(Cc2ccc(F)cc2F)C(=O)N4)ccn1 [Example 11]	≤ 250	250 to 1000		≤ 250		

SMILES	IC50 [1] [nM]	IC50 (A375 cells) [nM]	IC50 (H358 (Kras, G12C) cells) [nM]	IC50 (WM-266-4 cells) [nM]	IC50 (ERK2 enzyme; [2]) [nM]	IC50 (ERK2 enzyme; In vitro, ERK2 enzyme) [nM]
COc1ncccc1CN1Cc2cc3c(-c4ccnc(C)c4)n[nH]c3cc2NC1=O [Example 9]	250 to 1000	> 1000		250 to 1000		
Cc1cc(-c2n[nH]c3cc4[nH]c(=O)n(Cc5cccc(Cl)c5)c(=O)c4cc23)ccn1 [Example 24]		> 1000		> 1000		
Cc1cc(-c2n[nH]c3cc4[nH]c(=O)n(Cc5ccc(F)c(Cl)c5)c(=O)c4cc23)ccn1 [Example 15]	250 to 1000	> 1000		> 1000		
COc1ccc(CN2Cc3cc4c(-c5ccnc(C)c5)n[nH]c4cc3NC2=O)cc1 [Example 10]	≤ 250	250 to 1000		≤ 250		
Cc1cc(-c2n[nH]c3cc4c(cc23)CN([C@@H]2CCCN(C(C)c3ccc(F)cc3)C2)C(=O)N4)ccn1 (some centres unmarked) [Example 179]	≤ 250	250 to 1000	250 to 1000			
Cc1cc(-c2n[nH]c3cc4[nH]c(=O)n(Cc5ccccc5)c(=O)c4cc23)ccn1 [Example 27]	250 to 1000	> 1000	> 1000			
Cc1cc(-c2n[nH]c3cc4c(cc23)CN([C@@H]2CCCN(c3cccc(Cl)c3)C2)C(=O)N4)ccn1 [Example 174]	≤ 250	250 to 1000	≤ 250			
Cc1cc(-c2n[nH]c3cc4c(cc23)CN([C@@H]2CCCN(Cc3ccc(F)cn3)C2)C(=O)N4)ccn1 [Example 132]	≤ 250	250 to 1000	250 to 1000			
Cc1cc(-c2n[nH]c3cc4c(cc23)CN([C@H](CO)c2cccc(Cl)c2)C(=O)N4)ccn1 [Example 26]	≤ 250	250 to 1000	> 1000			
Cc1cc(-c2n[nH]c3cc4c(cc23)CN([C@@H]2CN(CC(F)(F)F)C[C@H]2c2ccccc2)C(=O)N4)ccn1 [Example 222]	≤ 250	250 to 1000	250 to 1000			
Cc1cc(-c2n[nH]c3cc4[nH]c(=O)c(C(O)c5ccccc5)cc4cc23)ccn1 (centres unmarked) [Example 221]	250 to 1000	250 to 1000	250 to 1000			
Cc1cc(-c2n[nH]c3cc4c(cc23)CC(C(C)c2cccc(Cl)c2)C(=O)N4)ccn1 (centres unmarked) [Example 181]	≤ 250	≤ 250	≤ 250			
Cc1cc(-c2n[nH]c3cc4[nH]c(=O)n(CCc5ccccc5)c4cc23)ccn1 [Example 20]	> 1000	> 1000		> 1000		
Cc1cc(-c2n[nH]c3cc4c(cc23)CN([C@@H]2CCCN(Cc3ccc(F)c(Cl)c3)C2)C(=O)N4)ccn1 [Example 134]	≤ 250	≤ 250	250 to 1000			
COc1ccc(-c2n[nH]c3cc4c(cc23)CN(Cc2ccc(F)c(Cl)c2)C(=O)N4)cn1 [Example 36]	250 to 1000	250 to 1000	250 to 1000			
Cc1cc(-c2n[nH]c3cc4[nH]c(=O)c([C@H](C)c5ccccc5)cc4cc23)ccn1 [Example 84]	≤ 250	≤ 250	≤ 250			
Cc1cc(-c2n[nH]c3cc4c(cc23)CN([C@@H]2CCCN(Cc3cc(F)cc(F)c3)C2)C(=O)N4)ccn1 [Example 163]	≤ 250	250 to 1000	250 to 1000			
O=C1Nc2cc3[nH]nc(-c4cncnc4)c3cc2CN1Cc1cccc(Cl)c1 [Example 123]	≤ 250	250 to 1000	250 to 1000			
Cc1cc(-c2n[nH]c3cc4c(cc23)CN(Cc2ccc(C(F)(F)F)cc2)C(=O)N4)ccn1 [Example 12]	≤ 250	250 to 1000		≤ 250		
